The source of these data is patent US5888744A, “Detection and separation of aminoglycosides by binding to immobilized lysozyme or α-lactalbumin” (The United States of America, as represented by the …, priority 1995, dated 1999).

Where two headings read alike, the source gives them in different places.

The target of series [1] is T1, immobilized lysozyme (Gallus gallus, UniProt P00698). In words: affinity chromatography on immobilized lysozyme (agarose gel), fluorescamine detection. Format: binding. The settings on record: in adulterated biological fluids, without prior deionization.
Series [2] has as its target T2, immobilized α-lactalbumin (Bos taurus, UniProt P00711).
T2 sequence (P00711 20-142): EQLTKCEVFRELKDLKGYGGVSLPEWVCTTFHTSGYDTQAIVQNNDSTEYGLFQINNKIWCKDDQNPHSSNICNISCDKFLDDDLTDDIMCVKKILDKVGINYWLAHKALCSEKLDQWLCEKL
In words: affinity chromatography on immobilized α-lactalbumin (agarose gel), fluorescamine detection. Format: binding. The protocol: This example illustrates an affinity chromatography method for the removal of aminoglycosides from biological fluids either for purification of the aminoglycoside or purification of the fluid by removal of aminoglycosides. Lysozyme and α-lactalbumin are immobilized using Affi-Gel 10® (N-hydroxysuccinimide ester agarose gel). A 1 ml aliquot of Affi-Gel 10® is transferred to a 5 ml disposable column, the solvent is drained, and the gel is washed with 3 bed volumes of cold (4° C.) distilled, deionized water. A 2 ml aliquot of lysozyme, 25 mg/ml in 0.1M 3-(n-morpholino)-propanesulphonic acid buffer (MOPS), pH 7.0, is added to the gel within 10 minutes of the water wash. The column is capped, contents mixed to form a uniform suspension, and incubated at 4° C. for 4 hour on a rotator. […]
Affinity columns are prepared by adding 1 ml of agarose gel containing immobilized enzyme to 5 ml disposable columns and draining the solvent. […] The fluorescence of all fractions are determined as described below. […]
Aminoglycosides can be detected by fluorescence derivatization using fluorescamine (De Silva et al, Anal. Chem., Vol. 47, 714-718, 1975, herein incorporated by reference). The fluorescence assay has a detection limit of 5 ppm for hygromycin B in citrate. […] The fluorescence is detected using a Perkin Elmer luminescence spectrometer at an excitation of 395 nm and an emission of 485 nm. […]

In series [3] the target is T1, immobilized lysozyme. Put plainly: affinity chromatography on immobilized lysozyme (agarose gel), fluorescamine detection. Format: binding. The settings on record: for binding by the affinity column: solubilized in water; for binding by the immobilized lysozyme: 25 ppm in water, eluted with 10 mM sodium citrate buffer, pH 4.0. The protocol:
This example illustrates an affinity chromatography method for the removal of aminoglycosides from biological fluids either for purification of the aminoglycoside or purification of the fluid by removal of aminoglycosides. Lysozyme and α-lactalbumin are immobilized using Affi-Gel 10® (N-hydroxysuccinimide ester agarose gel). A 1 ml aliquot of Affi-Gel 10® is transferred to a 5 ml disposable column, the solvent is drained, and the gel is washed with 3 bed volumes of cold (4° C.) distilled, deionized water. A 2 ml aliquot of lysozyme, 25 mg/ml in 0.1M 3-(n-morpholino)-propanesulphonic acid buffer (MOPS), pH 7.0, is added to the gel within 10 minutes of the water wash. The column is capped, contents mixed to form a uniform suspension, and incubated at 4° C. for 4 hour on a rotator. After incubation, the effluent is collected to determine unbound protein using the BCA® (Bicinchoninic acid, Pierce, Rockford, IL.) method. The remaining active sites on the agarose support are blocked by incubating 1 ml of 0.1M ethylene diamine (in 0.1M MOPS, pH 7.0) with agarose support for 1 hour at 4° C. on a rotator. The gel is washed with MOPS to remove any unbound material (OD280nm =0). α-lactalbumin is solubilized in 0.1M MOPS, 80 mM calcium chloride, pH 7.0 and is immobilized on Affi-Gel® using the same procedure described above for lysozyme.
Affinity columns are prepared by adding 1 ml of agarose gel containing immobilized enzyme to 5 ml disposable columns and draining the solvent. The gel is washed with three bed volumes of cold (4° C.) distilled, deionized water. The immobilized lysozyme is activated by washing the gel with 2 ml of 0.1M NaOH at a flow rate of 1 ml/min followed by 4 bed volumes of cold (4° C.) distilled, deionized water to remove NaOH. […] Aqueous solutions of Hygromycin B, concentrations of 1-100 ppm in distilled deionized water, are applied to the affinity columns and allowed to flow by gravity at approximately 1 ml/min. The flow through was collected to determine the amount of unbound hygromycin B. The columns are washed using four 1.0 ml aliquots of water followed by four 1.0 ml aliquots of 10 mM sodium citrate buffer, pH 4.0. The fluorescence of all fractions are determined as described below. Approximately 29 mg of lysozyme (approximately 53% immobilization efficiency; n=12) and 18 mg of α-lactalbumin (approximately 36% immobilization efficiency; n=7) are immobilized per ml of agarose gel using a 4 hour incubation time.
Aminoglycosides can be detected by fluorescence derivatization using fluorescamine (De Silva et al, Anal. Chem., Vol. 47, 714-718, 1975, herein incorporated by reference). The fluorescence assay has a detection limit of 5 ppm for hygromycin B in citrate. […] The affinity column also binds neomycin B, gentamicin, streptomycin, and dihydrostreptomycin. The fluorescence is detected using a Perkin Elmer luminescence spectrometer at an excitation of 395 nm and an emission of 485 nm. In some cases, TLC analysis (Medina et al, IN Residues of Veterinary Drugs in Food, Haagsma et al ED., Proc. EuroResidue II Conference, Veldhoven, The Netherlands, May 3-5, 1993; J. Chromatography, Vol. 663, 127-135, 1995, both herein incorporated by reference) is performed using the eluate from the affinity columns. The solvent is evaporated from the eluates, the samples reconstituted 1:1 using 95% ethanol, and applied to a Whatman LHK-PD silica gel plate with preabsorbant zones (10×10 cm; 9 lanes). The gel plate is developed for approximately 20 minutes with acetone/ethanol/ammonium hydroxide; 1:1:1, dried in a vacuum oven, cooled to room temperature, and dipped for approximately 4 seconds in 0.02% fluorescamine (acetone/hexane; 1:14). The plate is dried, sprayed lightly with 0.2M sodium citrate buffer, pH 3.0-5.0, with optimal signal at approximately pH 4.0, and the fluorescent bands are detected using an ultraviolet light box at a wavelength of 365 nm. […]

Series [4] concerns the target immobilized rat albumin (Rattus norvegicus, UniProt P02770). In words: binding by immobilized rat albumin (preliminary results).
Series [5] has as its target lysozyme (Gallus gallus, UniProt P00698). In words: competitive binding assay, spectinomycin-FITC tracer and latex lysozyme-particles (particle concentration fluorescent assay). The settings on record: for displacement or competition for the binding sites (bound spectinomycin-FITC): spectinomycin-FITC 4.9 ng and 2.45 ng. The protocol: This example illustrates the development of an aminoglycoside competitive binding assay using spectinomycin as the test aminoglycoside to confirm the presence of aminoglycosides in aqueous tissue extracts. Lysozyme is immobilized onto latex particles using the following method. Carboxylated latex particles are dispersed by sonication, 10 pulses of 75% duty cycle using power 3. Aliquots of 0.2 ml particles are transferred into 10 ml conical polypropylene tubes. The carboxyls are activated by adding 150 mg N-ethyl-N^3 (3-dimethylaminopropyl)-carbodiimide hydrochloride (EDC) and allowed to stand for approximately 15-20 minutes at approximately room temperature. Two ml of 0.1 mg/ml lysozyme in pH 7, 0.1M phosphate buffer is heated at […] for approximately 30 minutes and then is added to the activated particles drop by drop while mixing gently. The mixture is incubated at 37° C. for approximately 1.5 hours. The derivatized latex (latex-lysozyme) is centrifuged at approximately 8225×g (approximately 10,000 rpm) for approximately 5 minutes at approximately 4° C. The supernatant is assayed for protein content and compared with initial protein concentration using a Biorad protein assay. The latex-lysozyme is washed twice with 2 ml of pH 7 phosphate buffer and centrifuged at approximately 3,000×g for approximately 10 minutes. Four ml of phosphate buffer containing 0.1% sodium azide and 0.015% Brij surfactant is added to the latex lysozyme and the mixture is sonicated with 10 pulses prior to storage at 4° C.
To prepare the label for the assay, spectinomycin base (0.01 mM) and FITC (0.02 mM) are dissolved separately in 0.5 ml of 10 mM dibasic phosphate buffer adjusted to pH 8.8 with 10 mM monobasic phosphate buffer. The mixture is mixed gently for 2 hours at room temperature prior to storage at 4° C. The labeling is carried out in brown vials or in tubes wrapped with aluminum foil to prevent photodegradation of the fluorescent compounds. Dilutions are made such that 20 μl contains approximately 5 ng spectinomycin-FITC. Completion of derivatization is screened by thin layer chromatography using 10 ml of developing solvent, methanol:chloroform:acetone:ammonium hydroxide in a ratio of 3:3:3:1. The reaction mixture is diluted in distilled water, 1:100, and applied in 1 μl quantities to TLC plates and developed for approximately 10 minutes in a 118 ml capacity round glass bottle. The derivatized compound is compared to a 0.1 μM FITC sample. […]
Binding and competition interactions are assessed using lysozyme-particles containing 0.6 pg protein in 10 μl. […] In the 2-step saturation binding assay, the displacement of the bound spectinomycin-FITC is determined by adding unlabeled spectinomycin, 20 μl of 100 ng/ml, after the 30 minute incubation with spectinomycin-FITC. […]

For series [6] the following is noted: cited from earlier work.

Regarding `CN[C@@H]1C[C@H](N)[C@@H](O)[C@H](O[C@H]2O[C@H](CO)[C@H](O)[C@@H]3O[C@@]4(O[C@@H]23)O[C@H]([C@H](N)CO)[C@H](O)[C@H](O)[C@H]4O)[C@H]1O` [Hygromycin B], the “binding to immobilized lysozyme” value in series [1] is “does not bind”. In addition, the binding capacity is 0.1 mg per ml of affinity gel in series [2] (immobilized α-lactalbumin) and 0.5 mg per ml of affinity gel in series [3] (immobilized lysozyme). In addition, the “binding by the affinity column” value in series [3] (10 ppm (5 ml)) and in series [3] (60 ppm (10 ml)) was “completely bound” in each case. Further, in series [3], the “binding by the immobilized lysozyme” value was “completely bound”. In addition, in series [3] (per ml of affinity gel), the “difference in binding capacity, lysozyme vs α-lactalbumin” value is reported as 5 fold. The “binding by immobilized rat albumin” value in series [4] is on record as “binding”.

As for `CN[C@@H]1[C@H](O[C@H]2[C@H](O[C@H]3[C@H](O)[C@@H](O)[C@H](NC(=N)N)[C@@H](O)[C@@H]3NC(=N)N)O[C@@H](C)[C@]2(O)CO)O[C@@H](CO)[C@H](O)[C@H]1O` [dihydrostreptomycin], the “binding to the lysozyme affinity column (qualitative)” value in series [3] is on record as “binds”.

Consider `NC[C@@H]1O[C@H](O[C@H]2[C@@H](O)[C@H](O[C@@H]3[C@@H](O)[C@H](N)C[C@H](N)[C@H]3O[C@H]3O[C@H](CN)[C@@H](O)[C@H](O)[C@H]3N)O[C@@H]2CO)[C@H](N)[C@@H](O)[C@@H]1O` [neomycin B], for which, in series [3], the “binding to the lysozyme affinity column (qualitative)” value is given as “binds” and the “binding by the immobilized lysozyme” value is reported as “completely bound”.

Take `CN[C@@H]1[C@H](O)[C@H](NC)[C@H]2O[C@@]3(O)C(=O)C[C@@H](C)O[C@H]3O[C@@H]2[C@H]1O` [spectinomycin]: the “displacement or competition for the binding sites (bound spectinomycin-FITC)” value was determined as 34% in series [5] (1-step equilibrium assay, 20 ng unlabeled spectinomycin) and 96% in series [5] (2-step assay, 20 ng unlabeled spectinomycin added). Further, in series [5] (1-step equilibrium assay, dilute spectinomycin-FITC (1.22 ng)), the “competition of unlabeled drug for the binding sites” value came to 78%. Moreover, the “displacement of bound spectinomycin-FITC” value in series [5] (2-step assay, dilute spectinomycin-FITC (1.22 ng)) is given as “not displaced”.

On to `[H]/N=C(/N)N[C@H]1[C@H](O)[C@@H](O)[C@H](O[C@@H]2O[C@@H](C)[C@](O)(C=O)[C@H]2O[C@@H]2O[C@@H](CO)[C@H](O)[C@@H](O)[C@@H]2NC)[C@@H](N/C(N)=N\[H])[C@@H]1O` [streptomycin], for which, in series [3], the “binding to the lysozyme affinity column (qualitative)” value is given as “binds”.

Consider Neomycin, for which the “loss of activity of residues in eggs” value is 25% in series [6] (eggs); “little or no loss of activity” in series [6] (frying eggs); “little or no loss of activity” in series [6] (soft boiling and hard boiling).

Turning to gentamicin, the “binding by immobilized α-lactalbumin (qualitative)” value in series [2] (FIG. 4) is “incomplete binding”. In series [3], the “binding to the lysozyme affinity column (qualitative)” value is given as “binds” and the “binding by the immobilized lysozyme” value is recorded as “completely bound”.
